In series [1] the test system is heart muscle. The series can be described thus: Heart muscle uptake and elimination of radiolabelled fatty acids after tail vein injection in mice. In kind it is in vivo, NMRI mice. The method, then: (§1) Animal experiments with mice were carried out using the product resulting from the high pressure liquid chromatographic purification after evaporation of the eluate to dryness in a rotary evaporator and the dissolution of the product in human serum albumin. The solution is filtered and injected in aliquot portions to the tail vein of each animal.
(§2) The following table assembles the results of comparative tests with the compounds of the invention and prior art compounds: […]

Experiment in series [2]: as above
The class given is in vivo, NMRI mice. The settings on record: mouse, in vivo, iv; for tissue uptake at 2 min: NMRI mice, tail vein injection in human serum albumin, read-out: maximum 18F activity in the heart muscle. As to the method: as §1, §2

Where [3] appears, read: comparative tests, table 2, heart.
The mark [4] stands for this setting: NMRI mice, tail vein injection in human serum albumin.

In the case of `O=C(O)CCCCCCCCCCCCCCC[123I]` [16-^123 I-Palmitic acid], the “Max. Enrichment in % of Injected Dose per Heart” value (“Max. Enrichment in % … per Heart” for short) in series [1] (mouse, in vivo) was 3.36 ± 0.4 % of Injected Dose per Heart. Moreover, in series [1] (mouse, in vivo, iv), the “Elimination Half-time, rapid elimination” value came out at 2.4 ± 0.5 min; the “Elimination Half-time, slow elimination” value worked out at 33 ± 6.6 min; the “Time to Max. Enrichment” value is reported as 0.5 min.
Taken in the same sequence, the figures for `CCCCCCCCCCCCCCCCC([123I])C(=O)O` (stereo not shown) [2-^123 I-Stearic acid] were 1.411 ± 0.1 % of Injected Dose per Heart, 2 ± 0.4 min, 13 ± 2.7 min and 0.5 to 1 min.
Take `O=C(O)CCCCCCCCCCCCCCCC[34Cl]` [17-^34m Cl-Heptadecanoic acid]: the “Max. Enrichment in % … per Heart” value in series [1] (comparative tests, table 2) is reported as 2.16 ± 0.6 % of Injected Dose per Heart. In series [1] (setting [3]), the “Elimination Half-time, rapid elimination” value was 0.9 ± 0.2 min; the “Elimination Half-time, slow elimination” value turned out to be 23 ± 4.7 min; the “Time to Max. Enrichment” value turned out to be 0.25 min.
For `O=C(O)CCCCCCCCCCCCCCCC[18F]` [17-^18 F-Heptadecanoic acid], in series [2], the tissue uptake at 2 min was about 40 %ID/g. Besides, the tissue uptake in series [2] (general description, read-out: maximum pickup in heart muscle) is about 40 %ID/g. Moreover, in series [1] (setting [4]), the “dropoff of heart activity, long-duration component” value (shortened to “dropoff … long-duration component”) was “eighteen to fifty-one”; the “dropoff of heart activity, short-duration component” value (“dropoff … short-duration component” for short) was “two to six”; the “time within which the activity reaches a maximum in heart muscle” value is recorded as “two”. In addition, the “Max. Enrichment in % … per Heart” value in series [1] (comparative tests, table 2) is listed as 4.812 ± 0.8 % of Injected Dose per Heart. Further, in series [1] (setting [3]), the “Elimination Half-time, rapid elimination” value worked out at 6 ± 1.5 min; the “Elimination Half-time, slow elimination” value stood at 18 ± 6 min; the “Time to Max. Enrichment” value was 0.5 min.
Consider `CCCCCCCCCCCCCCCCC([77Br])C(=O)O` (stereo not shown) [2-^77 Br-Stearic acid], for which the “Max. Enrichment in % … per Heart” value in series [1] (mouse, in vivo) is recorded as 1.47 ± 0.3 % of Injected Dose per Heart. Moreover, in series [1] (mouse, in vivo, iv), the “Elimination Half-time, rapid elimination” value is listed as 1 ± 0.2 min; the “Elimination Half-time, slow elimination” value is recorded as 18 ± 3.6 min; the “Time to Max. Enrichment” value amounted to 1 min.
For “(9/10)-^18 F-stearic acid [9/10-^18 F-Stearic acid]”, in series [1] (setting [4]), the “dropoff … long-duration component” value is given as “eighteen to fifty-one”; the “dropoff … short-duration component” value is given as “two to six”; the “time within which the activity reaches a maximum in heart muscle” value is “two”. Further, the “maximum 18F activity in the heart muscle” value in series [1] (NMRI mice, tail vein injection in human serum albumin, 2 min) was “about 40 % gram (heart)”. In addition, in series [1] (comparative tests, table 2), the “Max. Enrichment in % … per Heart” value is 4.25 ± 0.9 % of Injected Dose per Heart. In series [1] (setting [3]), the “Elimination Half-time, rapid elimination” value is given as 4 ± 1 min; the “Elimination Half-time, slow elimination” value is reported as 24 ± 7 min; the “Time to Max. Enrichment” value was determined as 0.5 min.
`CCCCCCCCCCCCCCCCC([18F])C(=O)O` (stereo not shown) [2-^18 F-Stearic acid]: in series [1] (comparative tests, table 2), the “Max. Enrichment in % … per Heart” value was 1.34 ± 0.1 % of Injected Dose per Heart. For the same compound, in series [1] (setting [3]), the “Elimination Half-time, rapid elimination” value worked out at 0.5 ± 0.1 min; the “Elimination Half-time, slow elimination” value is recorded as 5 ± 1.5 min; the “Time to Max. Enrichment” value is recorded as 1 min.
Regarding `O=C(O)CCCCCCCCCCCCCCC[18F]` [16-^18 F-Palmitic acid, 16-^18 F hexadecanoic acid], the tissue uptake at 2 min in series [2] is about 40 %ID/g. In series [1] (setting [4]), the “dropoff … long-duration component” value is listed as “eighteen to fifty-one”; the “dropoff … short-duration component” value is given as “two to six”; the “time within which the activity reaches a maximum in heart muscle” value is given as “two”. The “Max. Enrichment in % … per Heart” value in series [1] (comparative tests, table 2) is listed as 4.35 ± 1.3 % of Injected Dose per Heart. In addition, in series [1] (setting [3]), the “Elimination Half-time, rapid elimination” value worked out at 3 ± 0.8 min; the “Elimination Half-time, slow elimination” value amounted to 44 ± 11 min; the “Time to Max. Enrichment” value came out at 0.25 min.
With `O=C(O)CCCCCCCCCCCCCCCC[77Br]` [17-^77 Br-Heptadecanoic acid], the “Max. Enrichment in % … per Heart” value in series [1] (mouse, in vivo) is listed as 2.210 ± 0.6 % of Injected Dose per Heart. For the same compound, in series [1] (mouse, in vivo, iv), the “Elimination Half-time, rapid elimination” value is given as 0.6 ± 0.1 min; the “Elimination Half-time, slow elimination” value was 36 ± 7.2 min; the “Time to Max. Enrichment” value worked out at 0.5 min.
In the case of `CCCCCCCCCCCCCCC[11C](=O)O` [1-[^11 C] Palmitic acid], in series [1] (comparative tests, table 2), the “Max. Enrichment in % … per Heart” value is given as 3.87 ± 1.0 % of Injected Dose per Heart. In series [1] (setting [3]), the “Elimination Half-time, slow elimination” value came to 33 ± 6.5 min and the “Time to Max. Enrichment” value came out at 0.25 min. The “Elimination Half-time, rapid elimination” value in series [1] (mouse, in vivo, iv) was 0.4 ± 0.1 min.
For the compound `O=C(O)CCCCCCCCCCCCCCCC[123I]` [17-^123 I-Heptadecanoic acid], the “Max. Enrichment in % … per Heart” value in series [1] (mouse, in vivo) is reported as 3.97 ± 0.4 % of Injected Dose per Heart. Also, in series [1] (mouse, in vivo, iv), the “Elimination Half-time, rapid elimination” value came to 2.1 ± 0.4 min; the “Elimination Half-time, slow elimination” value was 25 ± 5.0 min; the “Time to Max. Enrichment” value is 0.25 min.
Taken in the same sequence, the figures for `CCCCCCCCCCCCCCCCC([34Cl])C(=O)O` (stereo not shown) [2-^34m Cl-Stearic acid] were 2.03 ± 0.1 % of Injected Dose per Heart, 0.9 ± 0.2 min, 9 ± 1.8 min and 1 min.
